Species on record: Homo sapiens
Assay: Anticancer activity against human with metastatic pancreatic cancer assessed as median survival
Assay type: functional

`CCc1c2c(nc3ccc(OC(=O)N4CCC(N5CCCCC5)CC4)cc13)-c1cc3c(c(=O)n1C2)COC(=O)[C@]3(O)CC` was tested, and the Survival was 10.3 months.

Source: ChEMBL document CHEMBL1146471, “Camptothecin and taxol: historic achievements in natural products research” (J Nat Prod, 2004)
